{"source": "patent US20110123445A1", "about": "“TREATMENT MONITORING” (priority 2008, published 2011)", "origin": "cited, not measured here", "key": {"[1]": {"conditions": "phase I trial, 57 cancer patients; Adjei et al 2008"}, "[2]": {"system": "ERK phosphorylation", "conditions": "at the recommended phase II dose; Adjei et al 2008"}, "[3]": {"system": "tumour growth", "conditions": "Sebolt-Leopold et al 1999, 2004"}, "[4]": {"system": "MEK", "conditions": "Swiss 3T3 cells; Alessi et al 1995"}, "[5]": {"system": "phosphorylated ERK", "conditions": "phase II studies; all tumour types, including melanoma, breast, colon, and lung"}}}
{"smiles": "Cn1cnc2c(F)c(Nc3ccc(Br)cc3Cl)c(C(=O)NOCCO)cc21", "note": "[AZD6244]", "values": [{"measurement": "tolerability", "setting": "[1]", "result": "well tolerated"}, {"measurement": "inhibition of ERK phosphorylation", "setting": "[2]", "result": "demonstrable inhibition"}]}
{"smiles": "O=C(NOCC1CC1)c1ccc(F)c(F)c1Nc1ccc(I)cc1Cl", "note": "[PD184352]", "values": [{"measurement": "inhibition of tumour growth in vivo", "setting": "[3]", "result": "inhibit tumour growth in vivo"}]}
{"smiles": "COc1cccc(-c2cc(=O)c3ccccc3o2)c1N", "note": "[PD098059]", "values": [{"measurement": "suppression of MEK activation by a variety of agonists", "setting": "[4]", "result": "80-90%"}]}
{"smiles": "O=C(NOC[C@H](O)CO)c1ccc(F)c(F)c1Nc1ccc(I)cc1F", "note": "[PD0325901]", "values": [{"measurement": "phosphorylated ERK suppression in biopsied tumour tissue", "setting": "[5]", "result": "phosphorylated ERK suppression at all dose levels"}]}
